# Test results as given in article PMC3129046, “Engineering Laccases: In Search for Novel Catalysts” (Current Genomics, 2011).
# Biological target: T1, LAC3 (Trametes sp. C30, UniProt Q6TH77)
# T1 construct: lac3 cDNA in pYES-DEST52 under GAL1 promoter, secreted by Saccharomyces cerevisiae W303-1A; 501 aa, calc
# T1 sequence (Q6TH77 24-524): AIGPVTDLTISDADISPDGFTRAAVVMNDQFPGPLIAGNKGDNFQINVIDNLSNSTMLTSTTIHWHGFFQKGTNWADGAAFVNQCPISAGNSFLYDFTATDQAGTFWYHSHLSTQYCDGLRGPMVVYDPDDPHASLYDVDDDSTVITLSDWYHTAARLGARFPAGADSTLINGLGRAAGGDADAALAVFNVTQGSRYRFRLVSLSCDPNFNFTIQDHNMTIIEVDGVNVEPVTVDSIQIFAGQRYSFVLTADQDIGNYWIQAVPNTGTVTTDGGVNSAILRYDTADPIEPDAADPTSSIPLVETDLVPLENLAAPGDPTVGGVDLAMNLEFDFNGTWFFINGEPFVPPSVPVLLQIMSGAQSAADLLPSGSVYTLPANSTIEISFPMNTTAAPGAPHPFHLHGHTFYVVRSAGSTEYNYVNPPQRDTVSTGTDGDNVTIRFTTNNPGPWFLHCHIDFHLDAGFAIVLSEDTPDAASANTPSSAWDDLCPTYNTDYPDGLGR
# Test: brown halo on agar plate
# Type: cell-based
# Conditions: secreted recombinant enzyme, selective medium SGal URA
smiles,measurement,value
COc1ccccc1O [2-methoxyphenol],brown halo on agar plate,brown coloration resulting from the oxidation of the substrate 2-methoxyphenol by laccases
